Assay [1] concerns the target T1, 5-hydroxytryptamine receptor 1A (Homo sapiens, UniProt P08908).
T1 sequence (P08908 whole entry): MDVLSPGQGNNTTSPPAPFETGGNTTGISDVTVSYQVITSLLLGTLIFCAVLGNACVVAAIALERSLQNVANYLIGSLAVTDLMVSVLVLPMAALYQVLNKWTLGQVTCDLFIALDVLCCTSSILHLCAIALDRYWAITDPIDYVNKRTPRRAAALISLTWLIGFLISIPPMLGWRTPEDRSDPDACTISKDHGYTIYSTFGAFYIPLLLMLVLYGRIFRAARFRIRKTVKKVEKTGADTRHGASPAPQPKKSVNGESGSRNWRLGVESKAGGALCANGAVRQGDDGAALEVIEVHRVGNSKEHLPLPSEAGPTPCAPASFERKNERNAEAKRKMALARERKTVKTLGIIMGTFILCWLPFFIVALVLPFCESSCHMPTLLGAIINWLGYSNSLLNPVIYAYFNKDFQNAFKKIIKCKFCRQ
Nature of the assay: Displacement of [3H]-[…] from human recombinant 5HT1A receptor expressed in CHO cells after 60 mins by liquid scintillation counting analysis. The format is cell-based. A general note: In a radioligand displacement assay an active substance lowers the binding of a labelled ligand.

Assay [2] addresses T2, 5-hydroxytryptamine receptor 1A (Homo sapiens) (UniProt P08908).
T2 sequence (whole entry): T1 sequence (P08908 whole entry)
In words: Displacement of [3H]-[…] from human recombinant 5HT1A receptor expressed in CHO cells assessed as residual activity at 1 uM after 60 mins by liquid scintillation counting analysis. The format is cell-based.

For assay [3], the target named is T3, 5-hydroxytryptamine receptor 1A (Rattus norvegicus, UniProt P19327).
T3 sequence (P19327 whole entry): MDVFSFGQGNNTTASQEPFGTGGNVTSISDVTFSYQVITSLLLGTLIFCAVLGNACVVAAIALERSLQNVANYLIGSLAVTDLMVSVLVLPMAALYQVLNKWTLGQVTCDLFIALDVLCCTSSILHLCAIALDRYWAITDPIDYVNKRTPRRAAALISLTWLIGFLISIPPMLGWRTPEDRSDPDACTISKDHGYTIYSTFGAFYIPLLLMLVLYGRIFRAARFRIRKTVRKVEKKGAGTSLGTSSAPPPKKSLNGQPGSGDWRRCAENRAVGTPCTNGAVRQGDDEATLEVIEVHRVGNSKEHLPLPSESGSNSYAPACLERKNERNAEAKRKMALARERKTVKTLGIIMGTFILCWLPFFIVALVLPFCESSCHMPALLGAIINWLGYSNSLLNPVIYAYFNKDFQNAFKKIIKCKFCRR
Nature of the assay: Agonist activity at Wistar rat brain 5HT1A receptor assessed as inhibition of firing rate of dorsal raphe nucleus by electrophysiological analysis. The class given is tissue-based.

Assay [4] concerns the target T4, 5-hydroxytryptamine receptor 1A (Rattus norvegicus) (UniProt P19327).
T4 sequence (whole entry): T3 sequence (P19327 whole entry)
Nature of the assay: Agonist activity at Wistar rat brain 5HT1A receptor assessed as inhibition of firing rate of dorsal raphe nucleus by electrophysiological analysis in presence of WAY-100635. The class given is tissue-based.

Activity calls are given as the source filed them. The rule behind the calls is not given here.

The Ki is a measure of affinity in units of concentration, obtained from inhibition or displacement. With `O=C(NCCN1CC=C(c2ccc(Cl)cc2)CC1)c1cnc2ccccc2n1`, the Ki in assay [1] turned out to be 9.3 nM.
Take `Cc1ccc(C2=CCN(CCNC(=O)c3cnc4ccccc4n3)CC2)cc1`: the Ki in assay [1] came to 7.55 nM.
Turning to `Cc1ccc(N2CCN(CCN3C(=O)c4ccccc4C3=O)CC2)cc1`, in assay [2], the Activity amounted to 97%.
On to `O=C(NCCN1CCN(c2ccccc2)CC1)c1ccc2ccccc2c1`, for which the Ki in assay [1] came to 24.7 nM.
Same read-out and setting: in the case of `Cc1cc(C)cc(C2=CCN(CCN3C(=O)c4ccccc4C3=O)CC2)c1` it was 105 nM; in that of `Cc1cc(C)cc(N2CCN(CCNC(=O)c3ccc4ccccc4c3)CC2)c1`, 21 nM.
The same measure, in the same setting: then `O=C(NCCN1CCN(c2cc(F)cc(F)c2)CC1)c1ccc2ccccc2c1`, with 28.9 nM.
In the case of `O=C1c2ccccc2C(=O)N1CCN1CCN(c2ccc(Cl)cc2)CC1`, in assay [2], the Activity was determined as 97.4%.
The same measure, in the same setting: in the case of `O=C1c2ccccc2C(=O)N1CCN1CCN(c2ccc(F)cc2)CC1` it was 80.4%.
Regarding `O=C(NCCN1CCN(c2ccc(F)cc2)CC1)c1cnc2ccccc2n1`, in assay [1], the Ki stood at 63.3 nM.
In the case of `O=C(NCCN1CC=C(c2ccc(Cl)cc2)CC1)c1ccc2ccccc2c1`, in assay [1], the Ki is 42.5 nM.
Turning to `O=C1c2ccccc2C(=O)N1CCN1CC=C(c2ccc(F)cc2)CC1`, the Activity in assay [2] is 76.8%.
On to `O=C(NCCN1CCN(c2ccc(Cl)cc2)CC1)c1ccc2ccccc2c1`, for which the Ki in assay [1] is 50.7 nM.
Regarding `Cc1ccc(C2=CCN(CCNC(=O)c3ccc4ccccc4c3)CC2)cc1`, the Ki in assay [1] was 31.6 nM.
For the compound `Cc1ccc(N2CCN(CCNC(=O)c3cnc4ccccc4n3)CC2)cc1`, the Ki in assay [1] turned out to be 27.3 nM.
The IC50 is the concentration at which inhibition is half-maximal. Turning to `O=C(NCCN1CC=C(c2cc(F)cc(F)c2)CC1)c1cnc2ccccc2n1`, the Ki in assay [1] is 2.62 nM. Moreover, the IC50 in assay [3] amounted to 95 nM. The inhibition result in assay [4] is “inactive”.
`Cc1cc(C)cc(N2CCN(CCNC(=O)c3cnc4ccccc4n3)CC2)c1`: the Ki in assay [1] worked out at 3.67 nM. The IC50 in assay [3] stood at 383 nM. For the same compound, in assay [4], the inhibition entry is “inactive”.
With `O=C(NCCN1CCN(c2cc(F)cc(F)c2)CC1)c1cnc2ccccc2n1`, the Ki in assay [1] came to 11.1 nM. For the same compound, in assay [3], the IC50 is 1140 nM. For the same compound, the inhibition result in assay [4] is “inactive”.
The like results for `O=C(NCCN1CC=C(c2ccccc2)CC1)c1cnc2ccccc2n1` were, in that order, 3.76 nM, 460 nM and “inactive”.
Taken in the same sequence, the figures for `Cc1cc(C)cc(C2=CCN(CCNC(=O)c3cnc4ccccc4n3)CC2)c1` were 1.1 nM, 172 nM and “inactive”.
Regarding `O=C1c2ccccc2C(=O)N1CCN1CCN(c2cc(F)cc(F)c2)CC1`, the Activity in assay [2] came out at 79.6%.
In the case of `O=C1c2ccccc2C(=O)N1CCN1CC=C(c2ccccc2)CC1`, in assay [1], the Ki amounted to 706 nM.
The same measure, in the same setting: in the case of `O=C(NCCN1CC=C(c2ccc(F)cc2)CC1)c1cnc2ccccc2n1` it was 14 nM; in that of `O=C1c2ccccc2C(=O)N1CCN1CC=C(c2ccc(Cl)cc2)CC1`, 631 nM.
Still for that read-out and setting: then `O=C(NCCN1CC=C(c2ccccc2)CC1)c1ccc2ccccc2c1`, with 6.1 nM.
For the compound `Cc1cc(C)cc(C2=CCN(CCNC(=O)c3ccc4ccccc4c3)CC2)c1`, the Ki in assay [1] is 8.06 nM.
Same read-out and setting: in the case of `O=C(NCCN1CC=C(c2ccc(F)cc2)CC1)c1ccc2ccccc2c1` it was 33.5 nM.
Take `O=C1c2ccccc2C(=O)N1CCN1CCN(c2ccccc2)CC1`: the Activity in assay [2] was found to be 82%.
In the case of `O=C1c2ccccc2C(=O)N1CCN1CC=C(c2cc(F)cc(F)c2)CC1`, the Ki in assay [1] was 425 nM.
With `Cc1ccc(C2=CCN(CCN3C(=O)c4ccccc4C3=O)CC2)cc1`, the Activity in assay [2] amounted to 80%.
Take `O=C(NCCN1CC=C(c2cc(F)cc(F)c2)CC1)c1ccc2ccccc2c1`: the Ki in assay [1] turned out to be 7.29 nM.
For `Cc1cc(C)cc(N2CCN(CCN3C(=O)c4ccccc4C3=O)CC2)c1`, the Ki in assay [1] turned out to be 496 nM.
Regarding `O=C(NCCN1CCN(c2ccc(Cl)cc2)CC1)c1cnc2ccccc2n1`, the Ki in assay [1] amounted to 27 nM.
Turning to `O=C(NCCN1CCN(c2ccccc2)CC1)c1cnc2ccccc2n1`, the Ki in assay [1] was found to be 30 nM. In addition, the IC50 in assay [3] was found to be 1680 nM. The inhibition entry in assay [4] was “inactive”.
`O=C(NCCN1CCN(c2ccc(F)cc2)CC1)c1ccc2ccccc2c1`: in assay [1], the Ki was 54.3 nM.
The same measure, in the same setting: in the case of `Cc1ccc(N2CCN(CCNC(=O)c3ccc4ccccc4c3)CC2)cc1` it was 221 nM.
